SMILES strings stand for the structures. Several values for one entry are separate records, joined by “and”; a condition that tells them apart may be missing. Equal entries are not always repeated. Toxic doses and inconclusive results are not listed.

Among the data in PubChem BioAssay AID248 (DTP/NCI, 2004) are T/C values, retold here.

This test deals with L1210 leukemia ip in BDF1 mice, survival T/C. The test can be described thus: NCI In Vivo Anticancer Drug Screen. Data for tumor model L1210 Leukemia (intraperitoneal) in B6D2F1 (BDF1) mice. The settings on record: higher = longer survival. A digest of the protocol: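 Mice bearing the transplanted tumor received compound or vehicle. Survival of the treated group was divided by that of the vehicle-treated control group to give the ratio.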

The mark [1] stands for this setting: endpoint: mean survival time, dose: 100.0 mg/kg/injection, schedule: Q01DX001 (ip), vehicle: other.
Where [2] appears, read: endpoint: mean survival time, dose: 100.0 mg/kg/injection, schedule: Q04DX003 (ip), vehicle: saline with Tween-80.
The mark [3] stands for this setting: endpoint: mean survival time, dose: 200.0 mg/kg/injection, schedule: Q01DX001 (ip), vehicle: other.
The mark [4] stands for this setting: endpoint: mean survival time, dose: 200.0 mg/kg/injection, schedule: Q04DX003 (ip), vehicle: saline with Tween-80.
[5] abbreviates: endpoint: mean survival time, dose: 400.0 mg/kg/injection, schedule: Q04DX003 (ip), vehicle: saline with Tween-80.
Where [6] appears, read: endpoint: mean survival time, dose: 100.0 mg/kg/injection, schedule: Q04DX003 (ip), vehicle: Klucel (hydroxypropylcellulose) (HPC).
[7] abbreviates: endpoint: mean survival time, dose: 200.0 mg/kg/injection, schedule: Q04DX003 (ip), vehicle: Klucel (hydroxypropylcellulose) (HPC).

In the case of `O=NN(CCCl)C(=O)NC1CCC(=O)NC1=O` (stereo unspecified), the T/C reads like this: (endpoint: mean survival time, dose: 0.5 mg/kg/injection, schedule: Q01DX001 (ip), vehicle: other) 104 % of control; (endpoint: mean survival time, dose: 1.0 mg/kg/injection, schedule: Q01DX001 (ip), vehicle: other) 106 % of control; (endpoint: mean survival time, dose: 2.0 mg/kg/injection, schedule: Q01DX001 (ip), vehicle: other) 118 % of control; (endpoint: mean survival time, dose: 5.5 mg/kg/injection, schedule: Q01DX001 (ip), vehicle: other) 172 % of control; (endpoint: mean survival time, dose: 6.0 mg/kg/injection, schedule: Q01DX001 (ip), vehicle: other) 203 % of control; (endpoint: mean survival time, dose: 8.0 mg/kg/injection, schedule: Q01DX001 (ip), vehicle: other) 246 % of control. Besides, the T/C is, setting by setting: (endpoint: mean survival time, dose: 11.0 mg/kg/injection, schedule: Q01DX001 (ip), vehicle: other) 300 % of control; (endpoint: mean survival time, dose: 12.0 mg/kg/injection, schedule: Q01DX001 (ip), vehicle: other) 292 % of control; (endpoint: mean survival time, dose: 16.0 mg/kg/injection, schedule: Q01DX001 (ip), vehicle: other) 315 % of control and 326 % of control; (endpoint: mean survival time, dose: 22.0 mg/kg/injection, schedule: Q01DX001 (ip), vehicle: other) 340 % of control; (endpoint: mean survival time, dose: 24.0 mg/kg/injection, schedule: Q01DX001 (ip), vehicle: other) 220 % of control; (endpoint: mean survival time, dose: 33.0 mg/kg/injection, schedule: Q01DX001 (ip), vehicle: other) 340 % of control. Also, the T/C reads like this: (endpoint: mean survival time, dose: 36.0 mg/kg/injection, schedule: Q01DX001 (ip), vehicle: other) 93 % of control; (endpoint: mean survival time, dose: 44.0 mg/kg/injection, schedule: Q01DX001 (ip), vehicle: other) 295 % of control; (endpoint: median survival time, dose: 0.63 mg/kg/injection, schedule: Q01DX001 (ip), vehicle: other) 106 % of control; (endpoint: median survival time, dose: 0.63 mg/kg/injection, schedule: Q01DX001 (ip), vehicle: saline) 110 % of control; (endpoint: median survival time, dose: 0.63 mg/kg/injection, schedule: Q01DX001 (iv), vehicle: other) 103 % of control; (endpoint: median survival time, dose: 0.63 mg/kg/injection, schedule: Q01DX001 (iv), vehicle: saline) 108 % of control. The T/C reads like this: (endpoint: median survival time, dose: 1.25 mg/kg/injection, schedule: Q01DX001 (ip), vehicle: other) 116 % of control; (endpoint: median survival time, dose: 1.25 mg/kg/injection, schedule: Q01DX001 (ip), vehicle: saline) 120 % of control; (endpoint: median survival time, dose: 1.25 mg/kg/injection, schedule: Q01DX001 (iv), vehicle: other) 118 % of control; (endpoint: median survival time, dose: 1.25 mg/kg/injection, schedule: Q01DX001 (iv), vehicle: saline) 106 % of control; (endpoint: median survival time, dose: 2.5 mg/kg/injection, schedule: Q01DX001 (iv), vehicle: other) 122 % of control; (endpoint: median survival time, dose: 2.5 mg/kg/injection, schedule: Q01DX001 (iv), vehicle: saline) 118 % of control. The T/C is, setting by setting: (endpoint: median survival time, dose: 5.0 mg/kg/injection, schedule: Q01DX001 (ip), vehicle: other) 227 % of control; (endpoint: median survival time, dose: 5.0 mg/kg/injection, schedule: Q01DX001 (ip), vehicle: saline) 193 % of control; (endpoint: median survival time, dose: 5.0 mg/kg/injection, schedule: Q01DX001 (iv), vehicle: other) 151 % of control; (endpoint: median survival time, dose: 5.0 mg/kg/injection, schedule: Q01DX001 (iv), vehicle: saline) 150 % of control; (endpoint: median survival time, dose: 10.0 mg/kg/injection, schedule: Q01DX001 (ip), vehicle: other) 600 % of control; (endpoint: median survival time, dose: 10.0 mg/kg/injection, schedule: Q01DX001 (ip), vehicle: saline) 598 % of control. Also, the T/C was 290 % of control (endpoint: median survival time, dose: 10.0 mg/kg/injection, schedule: Q01DX001 (iv), vehicle: other); 253 % of control (endpoint: median survival time, dose: 10.0 mg/kg/injection, schedule: Q01DX001 (iv), vehicle: saline); 550 % of control (endpoint: median survival time, dose: 20.0 mg/kg/injection, schedule: Q01DX001 (ip), vehicle: other); 596 % of control (endpoint: median survival time, dose: 20.0 mg/kg/injection, schedule: Q01DX001 (ip), vehicle: saline); 599 % of control (endpoint: median survival time, dose: 20.0 mg/kg/injection, schedule: Q01DX001 (iv), vehicle: other); 600 % of control (endpoint: median survival time, dose: 20.0 mg/kg/injection, schedule: Q01DX001 (iv), vehicle: saline). The T/C (endpoint: median survival time, dose: 40.0 mg/kg/injection, schedule: Q01DX001 (ip), vehicle: other) is 101 % of control and the T/C (endpoint: median survival time, dose: 40.0 mg/kg/injection, schedule: Q01DX001 (ip), vehicle: saline) is 104 % of control.
As to `CCCN(C)N=Nc1ccccc1C(N)=O`, the T/C is 108 % of control (endpoint: mean survival time, dose: 44.0 mg/kg/injection, schedule: Q01DX009 (ip), vehicle: saline with Tween-80); 113 % of control (endpoint: mean survival time, dose: 50.0 mg/kg/injection, schedule: Q01DX009 (ip), vehicle: saline with Tween-80); 110 % of control (endpoint: mean survival time, dose: 50.0 mg/kg/injection, schedule: Q04DX003 (ip), vehicle: saline with Tween-80); 108 % of control (endpoint: mean survival time, dose: 66.0 mg/kg/injection, schedule: Q01DX009 (ip), vehicle: saline with Tween-80); 109 % of control under setting [1]; 111 % of control under setting [2]. Besides, the T/C is 153 % of control (endpoint: mean survival time, dose: 150.0 mg/kg/injection, schedule: Q01DX009 (ip), vehicle: saline with Tween-80); 113 % of control under setting [3]; 120 % of control (endpoint: mean survival time, dose: 200.0 mg/kg/injection, schedule: Q01DX009 (ip), vehicle: saline with Tween-80); 118 % of control under setting [4].
In the case of `CCCCC1=C(C)C(=O)OC1=O`, the T/C is 95 % of control under setting [2], 95 % of control under setting [4] and 103 % of control under setting [5].
In the case of `CC(=O)OC1c2ccccc2C(=O)C1(OC(C)=O)c1ccccc1` (stereo unspecified), the T/C runs as follows: (endpoint: mean survival time, dose: 100.0 mg/kg/injection, schedule: Q01DX009 (ip), vehicle: Klucel (hydroxypropylcellulose) (HPC)) 101 % of control; under setting [6], 97 % of control; (endpoint: mean survival time, dose: 200.0 mg/kg/injection, schedule: Q01DX009 (ip), vehicle: Klucel (hydroxypropylcellulose) (HPC)) 107 % of control; under setting [7], 100 % of control; (endpoint: mean survival time, dose: 400.0 mg/kg/injection, schedule: Q01DX009 (ip), vehicle: Klucel (hydroxypropylcellulose) (HPC)) 101 % of control; (endpoint: mean survival time, dose: 400.0 mg/kg/injection, schedule: Q04DX003 (ip), vehicle: Klucel (hydroxypropylcellulose) (HPC)) 102 % of control.
With `CCCCCCCC(=O)N1C(C)CCCC1C` (stereo unspecified), the T/C is, setting by setting: (endpoint: mean survival time, dose: 100.0 mg/kg/injection, schedule: Q04DX002 (ip), vehicle: saline) 114 % of control; (endpoint: mean survival time, dose: 200.0 mg/kg/injection, schedule: Q04DX002 (ip), vehicle: saline) 111 % of control; (endpoint: mean survival time, dose: 400.0 mg/kg/injection, schedule: Q04DX002 (ip), vehicle: saline) 104 % of control.
As for `CCN1CCC2C[N+](C)([O-])CCN2C1=O` (stereo unspecified), the T/C reads like this: under setting [2], 93 % of control; under setting [4], 95 % of control; under setting [5], 98 % of control.
On to `CCOC(=O)C1C2OC(=O)C(C(=O)C2CN(CCCl)CCCl)C1C1CC=C(CC2=CCC(C3C4C(=O)OC(C(CN(CCCl)CCCl)C4=O)C3C(=O)OCC)CC2)CC1` (stereo unspecified), for which the T/C was 108 % of control (endpoint: mean survival time, dose: 6.25 mg/kg/injection, schedule: Q01DX009 (ip), vehicle: Klucel (hydroxypropylcellulose) (HPC)); 116 % of control (endpoint: mean survival time, dose: 12.5 mg/kg/injection, schedule: Q01DX009 (ip), vehicle: Klucel (hydroxypropylcellulose) (HPC)); 158 % of control (endpoint: mean survival time, dose: 25.0 mg/kg/injection, schedule: Q01DX009 (ip), vehicle: Klucel (hydroxypropylcellulose) (HPC)); 109 % of control (endpoint: mean survival time, dose: 33.25 mg/kg/injection, schedule: Q04DX003 (ip), vehicle: Klucel (hydroxypropylcellulose) (HPC)); 114 % of control and 120 % of control (endpoint: mean survival time, dose: 50.0 mg/kg/injection, schedule: Q01DX009 (ip), vehicle: Klucel (hydroxypropylcellulose) (HPC)); 109 % of control (endpoint: mean survival time, dose: 66.5 mg/kg/injection, schedule: Q04DX003 (ip), vehicle: Klucel (hydroxypropylcellulose) (HPC)). Besides, the T/C runs as follows: under setting [6], 114 % of control; (endpoint: mean survival time, dose: 133.0 mg/kg/injection, schedule: Q04DX003 (ip), vehicle: Klucel (hydroxypropylcellulose) (HPC)) 109 % of control; under setting [7], 120 % of control; (endpoint: mean survival time, dose: 266.0 mg/kg/injection, schedule: Q04DX003 (ip), vehicle: Klucel (hydroxypropylcellulose) (HPC)) 117 % of control.
With `O=C(Nc1ccccc1)NC(C(=O)O)(c1ccccc1)c1ccccc1`, the T/C reads like this: (endpoint: mean survival time, dose: 50.0 mg/kg/injection, schedule: Q01DX001 (ip), vehicle: other) 97 % of control; under setting [1], 89 % of control; under setting [3], 92 % of control.
